Measurements from patent US10231954B2, “Neurodegenerative therapies” (LYTIX BIOPHARMA AS, priority 2014, dated 2019).
Where two headings read alike, the source gives them in different places.

Tests used:
Type in all cases: biochemical
MKK6 = target: T1, MKK6 (Homo sapiens, UniProt P52564); experiment: Kinase profiling MKK6; details: for remaining activity at 100 µM: read-out: residual kinase activity, MKK6
T1 sequence (P52564 1-334): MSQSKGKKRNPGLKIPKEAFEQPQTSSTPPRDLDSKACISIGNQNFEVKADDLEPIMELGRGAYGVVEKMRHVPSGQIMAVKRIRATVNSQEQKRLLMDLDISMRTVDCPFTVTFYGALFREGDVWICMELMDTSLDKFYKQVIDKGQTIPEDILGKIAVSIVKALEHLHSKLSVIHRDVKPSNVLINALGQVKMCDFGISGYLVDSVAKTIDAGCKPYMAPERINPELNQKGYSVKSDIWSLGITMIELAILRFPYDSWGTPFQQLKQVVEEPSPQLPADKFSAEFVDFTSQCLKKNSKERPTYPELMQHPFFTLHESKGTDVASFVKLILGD
From the text: (§1) Any value less that 25 is considered to be highly significant inhibition.

ERK2 = ERK2 (Homo sapiens, UniProt P28482); experiment: Kinase profiling ERK2; details: for remaining activity at 100 µM: read-out: residual kinase activity, ERK2
From the text: as §1

p38g MAPK = target: T2, p38g MAPK (Homo sapiens, UniProt P53778); experiment: Kinase profiling p38g MAPK; details: for remaining activity at 100 µM: read-out: residual kinase activity, p38g MAPK
T2 sequence (P53778 1-367): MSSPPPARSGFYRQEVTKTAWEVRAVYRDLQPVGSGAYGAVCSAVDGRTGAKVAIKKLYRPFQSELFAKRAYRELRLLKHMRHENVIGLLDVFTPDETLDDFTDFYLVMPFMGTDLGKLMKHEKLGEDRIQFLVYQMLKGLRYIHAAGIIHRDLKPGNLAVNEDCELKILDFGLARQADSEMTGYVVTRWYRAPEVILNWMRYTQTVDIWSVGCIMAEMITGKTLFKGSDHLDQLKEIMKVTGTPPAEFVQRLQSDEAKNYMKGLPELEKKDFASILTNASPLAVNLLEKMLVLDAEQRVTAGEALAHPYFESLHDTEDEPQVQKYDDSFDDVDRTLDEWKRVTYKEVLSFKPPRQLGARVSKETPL
From the text: as §1

PKBa = PKBa (Homo sapiens, UniProt P31749); experiment: Kinase profiling PKBa; details: for remaining activity at 100 µM: read-out: residual kinase activity, PKBa; for residual kinase activity, PKBa: 100 micromolar inhibitor concentration, 100 is no change
PKBa, sequence (P31749 whole entry): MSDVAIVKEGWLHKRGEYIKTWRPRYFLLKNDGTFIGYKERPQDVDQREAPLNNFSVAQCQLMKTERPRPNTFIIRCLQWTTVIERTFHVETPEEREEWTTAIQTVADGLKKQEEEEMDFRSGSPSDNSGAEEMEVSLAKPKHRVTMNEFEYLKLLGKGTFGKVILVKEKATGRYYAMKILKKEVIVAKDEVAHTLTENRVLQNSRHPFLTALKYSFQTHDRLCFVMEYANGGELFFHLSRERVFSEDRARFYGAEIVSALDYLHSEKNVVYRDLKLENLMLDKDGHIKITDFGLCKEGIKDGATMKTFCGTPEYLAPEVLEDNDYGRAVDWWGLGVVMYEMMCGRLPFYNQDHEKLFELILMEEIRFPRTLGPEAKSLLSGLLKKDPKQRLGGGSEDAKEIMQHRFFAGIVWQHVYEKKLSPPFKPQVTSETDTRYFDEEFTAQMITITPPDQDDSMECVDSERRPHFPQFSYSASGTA
From the text: as §1

PKA = PKA (Homo sapiens, UniProt P17612); experiment: Kinase profiling PKA; details: for remaining activity at 100 µM: read-out: residual kinase activity, PKA
From the text: as §1

PKCa = PKCa (Homo sapiens, UniProt P17252); experiment: Kinase profiling PKCa; details: for remaining activity at 100 µM: read-out: residual kinase activity, PKCa
From the text: as §1

PKD1 = target: T3, PKD1 (Homo sapiens, UniProt Q15139); experiment: Kinase profiling PKD1; details: for remaining activity at 100 µM: read-out: residual kinase activity, PKD1
T3 sequence (Q15139 1-912): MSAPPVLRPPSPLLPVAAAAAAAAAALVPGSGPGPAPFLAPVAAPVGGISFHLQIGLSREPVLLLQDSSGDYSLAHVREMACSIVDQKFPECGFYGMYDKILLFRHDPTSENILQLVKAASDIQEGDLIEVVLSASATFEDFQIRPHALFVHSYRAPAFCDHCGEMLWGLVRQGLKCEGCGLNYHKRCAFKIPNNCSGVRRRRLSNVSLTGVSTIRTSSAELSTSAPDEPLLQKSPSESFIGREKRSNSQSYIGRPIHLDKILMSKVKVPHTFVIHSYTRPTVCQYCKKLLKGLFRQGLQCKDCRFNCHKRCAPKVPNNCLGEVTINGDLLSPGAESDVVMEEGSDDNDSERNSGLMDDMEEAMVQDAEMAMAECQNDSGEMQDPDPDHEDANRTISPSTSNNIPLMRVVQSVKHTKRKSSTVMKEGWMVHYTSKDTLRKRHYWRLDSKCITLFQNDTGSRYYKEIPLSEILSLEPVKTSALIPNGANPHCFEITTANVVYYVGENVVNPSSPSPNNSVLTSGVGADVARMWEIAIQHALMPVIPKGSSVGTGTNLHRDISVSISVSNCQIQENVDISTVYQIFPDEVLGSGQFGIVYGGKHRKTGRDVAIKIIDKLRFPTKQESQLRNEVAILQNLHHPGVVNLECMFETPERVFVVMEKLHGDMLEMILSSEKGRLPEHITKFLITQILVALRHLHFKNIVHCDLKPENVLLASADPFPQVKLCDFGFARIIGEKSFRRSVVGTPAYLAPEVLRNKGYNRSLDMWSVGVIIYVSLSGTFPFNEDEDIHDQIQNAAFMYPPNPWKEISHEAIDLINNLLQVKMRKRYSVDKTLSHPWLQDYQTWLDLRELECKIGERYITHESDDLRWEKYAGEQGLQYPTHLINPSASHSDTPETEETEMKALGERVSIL
From the text: as §1

CAMKKb = CAMKKb (Homo sapiens, UniProt Q96RR4); experiment: Kinase profiling CAMKKb; details: for remaining activity at 100 µM: read-out: residual kinase activity, CAMKKb
CAMKKb, sequence (Q96RR4 whole entry, species assumed): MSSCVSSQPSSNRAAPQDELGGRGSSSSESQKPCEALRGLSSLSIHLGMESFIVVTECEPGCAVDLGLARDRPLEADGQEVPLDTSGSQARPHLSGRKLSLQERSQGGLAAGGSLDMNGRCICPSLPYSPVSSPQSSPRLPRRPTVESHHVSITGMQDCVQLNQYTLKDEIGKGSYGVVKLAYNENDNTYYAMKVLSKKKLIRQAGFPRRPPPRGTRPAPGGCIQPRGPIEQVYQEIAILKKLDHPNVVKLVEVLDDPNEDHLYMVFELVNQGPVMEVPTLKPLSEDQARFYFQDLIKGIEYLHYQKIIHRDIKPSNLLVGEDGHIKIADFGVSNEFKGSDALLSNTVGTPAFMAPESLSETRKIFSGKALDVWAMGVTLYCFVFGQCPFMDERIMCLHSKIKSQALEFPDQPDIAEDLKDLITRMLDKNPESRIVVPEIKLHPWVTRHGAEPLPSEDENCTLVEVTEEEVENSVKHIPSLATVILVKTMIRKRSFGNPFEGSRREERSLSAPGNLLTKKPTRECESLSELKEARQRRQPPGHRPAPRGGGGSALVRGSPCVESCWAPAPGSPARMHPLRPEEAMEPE
From the text: as §1

CAMK1 = CAMK1 (Homo sapiens, UniProt Q14012); experiment: Kinase profiling CAMK1; details: for remaining activity at 100 µM: read-out: residual kinase activity, CAMK1
CAMK1, sequence (Q14012 whole entry, species assumed): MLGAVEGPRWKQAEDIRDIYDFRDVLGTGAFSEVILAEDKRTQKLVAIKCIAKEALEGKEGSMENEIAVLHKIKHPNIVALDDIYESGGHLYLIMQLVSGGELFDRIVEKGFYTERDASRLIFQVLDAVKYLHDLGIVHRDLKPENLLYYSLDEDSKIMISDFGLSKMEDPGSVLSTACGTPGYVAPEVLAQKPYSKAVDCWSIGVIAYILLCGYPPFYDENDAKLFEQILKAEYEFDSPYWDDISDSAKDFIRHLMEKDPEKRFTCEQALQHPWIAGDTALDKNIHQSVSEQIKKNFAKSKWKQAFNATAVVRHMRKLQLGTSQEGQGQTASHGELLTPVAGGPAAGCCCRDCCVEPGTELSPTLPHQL
From the text: as §1

PLK1 = PLK1 (Homo sapiens, UniProt P53350); experiment: Kinase profiling PLK1; details: for remaining activity at 100 µM: read-out: residual kinase activity, PLK1
PLK1, sequence (P53350 whole entry, species assumed): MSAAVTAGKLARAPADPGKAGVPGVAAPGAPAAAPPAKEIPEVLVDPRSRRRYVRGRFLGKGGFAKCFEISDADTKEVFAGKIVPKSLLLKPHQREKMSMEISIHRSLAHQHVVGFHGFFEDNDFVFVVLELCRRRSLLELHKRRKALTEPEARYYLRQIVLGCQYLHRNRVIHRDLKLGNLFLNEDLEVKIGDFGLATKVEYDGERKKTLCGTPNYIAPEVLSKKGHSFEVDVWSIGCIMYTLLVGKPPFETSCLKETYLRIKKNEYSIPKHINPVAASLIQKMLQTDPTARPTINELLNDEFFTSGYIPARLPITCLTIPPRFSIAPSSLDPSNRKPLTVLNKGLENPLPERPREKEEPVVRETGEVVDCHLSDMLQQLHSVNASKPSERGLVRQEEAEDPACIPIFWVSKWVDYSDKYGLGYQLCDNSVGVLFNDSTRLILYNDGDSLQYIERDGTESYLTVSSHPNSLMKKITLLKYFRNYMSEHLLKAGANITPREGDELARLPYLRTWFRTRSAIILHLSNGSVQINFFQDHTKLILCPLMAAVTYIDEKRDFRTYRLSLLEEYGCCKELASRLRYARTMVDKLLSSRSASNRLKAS
From the text: as §1

CK2 = experiment: Kinase profiling CK2
From the text: as §1

PAK4 = PAK4 (Homo sapiens, UniProt O96013); experiment: Kinase profiling PAK4; details: for remaining activity at 100 µM: read-out: residual kinase activity, PAK4
PAK4, sequence (O96013 whole entry, species assumed): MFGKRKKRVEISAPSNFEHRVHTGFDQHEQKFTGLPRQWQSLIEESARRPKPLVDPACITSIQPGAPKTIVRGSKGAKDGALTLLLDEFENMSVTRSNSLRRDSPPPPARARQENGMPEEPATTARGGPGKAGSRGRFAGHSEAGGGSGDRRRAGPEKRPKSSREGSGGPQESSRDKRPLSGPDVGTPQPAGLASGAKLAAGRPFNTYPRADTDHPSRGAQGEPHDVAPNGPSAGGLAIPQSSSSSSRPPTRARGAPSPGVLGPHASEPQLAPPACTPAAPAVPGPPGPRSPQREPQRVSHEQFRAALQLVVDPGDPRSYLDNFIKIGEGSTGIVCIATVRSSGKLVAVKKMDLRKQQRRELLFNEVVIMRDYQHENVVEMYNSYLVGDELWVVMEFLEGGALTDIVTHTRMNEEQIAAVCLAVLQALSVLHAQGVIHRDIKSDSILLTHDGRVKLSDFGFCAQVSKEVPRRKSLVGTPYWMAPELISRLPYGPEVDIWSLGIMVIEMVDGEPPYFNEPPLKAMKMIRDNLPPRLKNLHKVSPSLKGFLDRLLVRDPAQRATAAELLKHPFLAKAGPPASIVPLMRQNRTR
From the text: as §1

BTK = BTK (Homo sapiens, UniProt Q06187); experiment: Kinase profiling BTK; details: for remaining activity at 100 µM: read-out: residual kinase activity, BTK
BTK, sequence (Q06187 whole entry, species assumed): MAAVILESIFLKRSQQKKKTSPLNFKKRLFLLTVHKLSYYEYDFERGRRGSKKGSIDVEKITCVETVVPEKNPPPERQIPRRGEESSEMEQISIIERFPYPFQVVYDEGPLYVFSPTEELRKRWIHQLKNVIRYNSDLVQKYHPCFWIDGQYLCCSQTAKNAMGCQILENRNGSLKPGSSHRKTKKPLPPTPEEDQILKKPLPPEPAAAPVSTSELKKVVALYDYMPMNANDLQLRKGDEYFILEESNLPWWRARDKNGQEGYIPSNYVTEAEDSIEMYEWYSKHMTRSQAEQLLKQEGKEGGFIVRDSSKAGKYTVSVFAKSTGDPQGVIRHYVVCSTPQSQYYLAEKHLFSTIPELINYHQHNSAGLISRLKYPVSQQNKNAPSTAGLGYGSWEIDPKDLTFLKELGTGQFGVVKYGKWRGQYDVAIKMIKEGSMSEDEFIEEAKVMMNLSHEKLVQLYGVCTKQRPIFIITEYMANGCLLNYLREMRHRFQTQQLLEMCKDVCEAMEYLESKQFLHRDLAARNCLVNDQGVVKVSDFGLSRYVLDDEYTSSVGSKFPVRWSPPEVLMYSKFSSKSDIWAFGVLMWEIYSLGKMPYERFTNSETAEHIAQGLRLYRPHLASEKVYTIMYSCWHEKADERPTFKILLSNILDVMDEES
From the text: as §1

EPH-A2 = EPH-A2 (Homo sapiens, UniProt P29317); experiment: Kinase profiling EPH-A2; details: for remaining activity at 100 µM: read-out: residual kinase activity, EPH-A2
EPH-A2, sequence (P29317 24-976, species assumed): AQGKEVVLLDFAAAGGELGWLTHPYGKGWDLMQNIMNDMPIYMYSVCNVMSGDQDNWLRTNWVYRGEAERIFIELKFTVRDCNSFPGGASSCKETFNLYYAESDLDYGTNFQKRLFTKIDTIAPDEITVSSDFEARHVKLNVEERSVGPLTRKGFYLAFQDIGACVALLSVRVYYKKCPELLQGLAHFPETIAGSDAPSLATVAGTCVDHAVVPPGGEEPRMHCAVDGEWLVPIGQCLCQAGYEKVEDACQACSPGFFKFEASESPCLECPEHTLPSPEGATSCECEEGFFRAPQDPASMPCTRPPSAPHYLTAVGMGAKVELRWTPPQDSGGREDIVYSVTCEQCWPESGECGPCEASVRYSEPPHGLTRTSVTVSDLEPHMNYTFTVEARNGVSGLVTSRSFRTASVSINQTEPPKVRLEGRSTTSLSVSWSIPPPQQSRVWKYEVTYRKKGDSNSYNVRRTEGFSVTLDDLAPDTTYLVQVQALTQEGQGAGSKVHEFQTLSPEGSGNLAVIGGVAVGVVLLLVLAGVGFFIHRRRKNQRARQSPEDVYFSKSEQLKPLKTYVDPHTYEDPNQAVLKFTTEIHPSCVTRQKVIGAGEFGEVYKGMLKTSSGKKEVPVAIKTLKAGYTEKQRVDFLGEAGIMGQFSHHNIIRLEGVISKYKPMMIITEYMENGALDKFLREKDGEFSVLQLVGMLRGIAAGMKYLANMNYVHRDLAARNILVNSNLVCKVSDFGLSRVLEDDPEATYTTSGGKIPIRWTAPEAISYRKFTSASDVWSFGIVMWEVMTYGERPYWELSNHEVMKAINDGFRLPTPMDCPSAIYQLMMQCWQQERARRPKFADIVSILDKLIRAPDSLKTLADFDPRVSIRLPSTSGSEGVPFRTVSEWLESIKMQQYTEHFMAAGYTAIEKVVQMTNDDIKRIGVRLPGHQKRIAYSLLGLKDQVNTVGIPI
From the text: as §1

[1] = 100 micromolar inhibitor, 100 = no change
[2] = 100 micromolar inhibitor concentration, 100 is no change

Structure (SMILES)	residual kinase activity, MKK6 (MKK6; [2])	residual kinase activity, ERK2 (ERK2; [2])	residual kinase activity, p38g MAPK (p38g MAPK; [2])	residual kinase activity, PKBa (PKBa)	residual kinase activity, PKA (PKA; [2])	residual kinase activity, PKCa (PKCa; [2])	residual kinase activity, PKD1 (PKD1; [2])	residual kinase activity, CAMKKb (CAMKKb; [2])	residual kinase activity, CAMK1 (CAMK1; [2])	residual kinase activity, PLK1 (PLK1; [2])	residual kinase activity, CK2 (CK2; [2])	residual kinase activity, PAK4 (PAK4; [2])	residual kinase activity, BTK (BTK; [2])	residual kinase activity, EPH-A2 (EPH-A2; [2])	also measured
CC(=O)Nc1cccc(NC(=O)c2nc3ccc(O)cc3s2)c1 [Compound 03-07, N-(3-acetamidophenyl)-6-hydroxybenzo[d]thiazole-2-carboxamide]	–	–	–	–	–	–	–	–	–	–	–	–	–	–	remaining activity at 100 µM (MKK6; [1]): 114%; remaining activity at 100 µM (ERK2; [1]): 96%; remaining activity at 100 µM (p38g MAPK; [1]): 93%; remaining activity at 100 µM (PKBa; [1]): 103%; remaining activity at 100 µM (PKA; [1]): 91%; remaining activity at 100 µM (PKCa; [1]): 81%; remaining activity at 100 µM (PKD1; [1]): 61%; remaining activity at 100 µM (CAMKKb; [1]): 30%; remaining activity at 100 µM (CAMK1; [1]): 44%; remaining activity at 100 µM (PLK1; [1]): 93%; residual kinase activity, CK2 (CK2; [1]): 35; remaining activity at 100 µM (PAK4; [1]): 92%; remaining activity at 100 µM (BTK; [1]): 32%; remaining activity at 100 µM (EPH-A2; [1]): 88%
O=C(Nc1nc2cc(O)ccc2s1)c1ccncc1 [Compound 03-11]	101	85	93	88	110	91	74	88	85	76	68	73	107	84	–
O=C(Nc1nc2ccc(O)cc2s1)c1ccccn1 [Compound 03-12]	99	88	89	74	97	101	70	41	47	65	57	87	71	85	–
O=C(Nc1nc2cc(O)ccc2s1)c1ccccn1 [Compound 03-13]	105	100	94	107	102	112	76	69	111	96	78	115	90	81	–
COc1ccc2sc(NC(C)=O)nc2c1 [Compound 03-21]	–	–	–	–	–	–	–	–	–	–	87	–	–	–	remaining activity at 100 µM (MKK6; [2]): 117%; remaining activity at 100 µM (ERK2; [2]): 109%; remaining activity at 100 µM (p38g MAPK; [2]): 56%; remaining activity at 100 µM (PKBa): 91%; remaining activity at 100 µM (PKA; [2]): 11%; remaining activity at 100 µM (PKCa; [2]): 101%; remaining activity at 100 µM (PKD1; [2]): 59%; remaining activity at 100 µM (CAMKKb; [2]): 87%; remaining activity at 100 µM (CAMK1; [2]): 81%; remaining activity at 100 µM (PLK1; [2]): 90%; remaining activity at 100 µM (PAK4; [2]): 94%; remaining activity at 100 µM (BTK; [2]): 102%; remaining activity at 100 µM (EPH-A2; [2]): 89%
CC(=O)Nc1nc2ccccc2s1 [Compound 03-32]	85	149	109	104	91	104	105	101	99	62	96	75	100	111	–
O=C(Nc1nc2cc(O)ccc2s1)c1cccnc1 [Compound 03-33]	122	107	85	100	102	105	71	69	104	80	88	92	110	108	–
O=C(Nc1nc2ccc(O)cc2s1)c1ccccc1 [Compound 03-60]	109	82	58	79	97	97	47	37	22	74	16	35	59	77	–
